Results published in patent publication US10577428B2, “Anti-factor XI monoclonal antibodies and methods of use thereof” (Oregon Health & Science University, priority 2007, dated 2020).

Assays:
baboons [1] = assay: Effect of locally infused PPACK during local sampling; assay type: in vivo, baboon; conditions: PPACK 0.5 mg/ml infused locally at 20 μl/min
Description: A novel local sampling method was used to assess the local production of thrombogenic mediators by sampling blood that superfused propagating experimental thrombi. […] All blood samples were collected into 1/10th volume 3.8% citrate anticoagulant. Systemic samples (1 ml each) were collected before initiation of thrombosis as well as 30 and 60 min into each study. A total of 6 local blood samples were drawn from the peripheral blood IBL at a rate of 100 μl/min over 10 min intervals out of a 0.64 mm port which was located 10 mm distal to the growing thrombus (FIG. 1A). […] Infusion and sampling were regulated by syringe pumps (Harvard Apparatus). Local sampling was performed only with the 4 mm i.d. devices in this study.

baboons (Papio anubis) = assay: Vascular graft occlusion studies, collagen coated 2 mm i.d. grafts, high arterial shear; assay type: in vivo, baboon (Papio anubis)
Description: Thrombus formation was initiated within the baboon AV shunt by interposing a thrombogenic segment of prosthetic vascular graft (ePTFE, WL Gore & Co., Flagstaff, Ariz.), as previously described (Hanson et al. (1993) J. Clin. Invest. 92:2003-2012). To consistently trigger platelet-dependent thrombus formation, the clinical graft segments were coated with immobilized collagen. Twenty mm long grafts having internal diameters (i.d.) of either 2 or 4 mm were filled with equine type I collagen (1 mg/ml; Nycomed Arzenmittel, Munich, Germany) for 15 min, and then dried overnight under sterile airflow. This method produced a uniform collagen coating within the graft lumen as determined by scanning electron microscopy (FIGS. 1B and 1C). The thrombogenic collagen-coated grafts were then incorporated between segments of silicon rubber tubing, and deployed into the AV shunts (FIG. 1A). The grafts were exposed to blood for up to 60 min. During each experiment, the blood flow rate through the graft was restricted to 100 ml/min by clamping the proximal silicone rubber shunt segment, thereby producing a mean wall shear rate (MWSR) in the 4 mm grafts of 265 s^−1, while in the 2 mm grafts the initial MWSR was 2120 s^−1. Flow rates were continuously monitored using an ultrasonic flow meter (Transonics Systems, Ithaca, N.Y.). […] Baseline blood flow was restored through the permanent shunt after each experiment. In the 2 mm diameter grafts blood flow rates progressively declined due to thrombus formation. The grafts were removed from the AV shunts when the flow rate fell from 100 ml/min to below 20 ml/min, signaling imminent occlusion. The time from initiation of blood flow to graft removal (<20 ml/min blood flow) was taken as the occlusion time.
Occlusion studies were performed using 10 mm long 2 mm i.d. collagen coated devices which produced high arterial shear rates (2120 s^−1 at 100 ml/min clamped blood flow). Accumulation of labeled platelets onto 2 mm thrombogenic grafts were measured in 3-min intervals using a gamma scintillation camera. Flow was maintained at 100 ml/min by proximal clamping for as long as possible, and then allowed to decrease as the propagating thrombus began to occlude the device. A final blood flow rate of 20 ml/min was used as a cutoff for occlusion, since a fully occlusive thrombi and lack of blood flow through the device could lead to occlusion of the shunt and a significant loss of blood for the animals.
Since aspirin is a less antihemostatic agent than heparin, and it is often included in the standard treatment of arterial-type platelet-dependent thrombosis, ASA was used in the current studies with the occlusion-prone 2 mm i.d. grafts as a long-acting positive control. ASA (32 mg/kg) was administered orally 2-4 h before each thrombosis experiment, as described previously (Hanson et al. (1985) J. Clin. Invest. 75:1591-1599). Four weeks were allowed for washout of each aXIMab and ASA before performing new experiments in the same animal.

baboons [2] = assay: Standard template skin bleeding time test (Surgicutt); assay type: in vivo, baboon
Description: The effects of FXI inhibition and aspirin on primary hemostasis in baboons were assessed using the standard template skin bleeding time test (Surgicutt®, International Technidyne Corp). […] All bleeding time measurements were performed by the same expert technician. For indirect assessment of hemostasis, aPTT and PT measurements were also performed.

baboons [3] = assay: Observation for adverse reactions and bleeding events; assay type: in vivo, baboon; conditions: one week follow-up periods of observation

Compound: NC(N)=NCCC[C@H](NC(=O)[C@@H]1CCCN1C(=O)[C@H](N)Cc1ccccc1)C(=O)CCl [PPACK, Phe-Pro-Arg-chloromethylketone]
- systemic prothrombin times (PT) or activated partial thromboplastin times (aPTT) (baboons [1]): did not affect

Compound: CC(=O)Oc1ccccc1C(=O)O [ASA, acetylsalicylic acid, reference compound]
- platelet deposition (baboons (Papio anubis); 2 mm i.d. grafts): reduced platelet deposition
- Number occluded (baboons (Papio anubis); 2 mm i.d. grafts, 60 min): 4/6
- Embolic events per experiment (baboons (Papio anubis); 2 mm i.d. grafts, mean ± SEM): 1.5 ± 0.6
- Fibrin deposition (baboons (Papio anubis); 2 mm i.d. grafts, mean ± SEM, control 0.30 ± 0.04): 0.23 ± 0.04 mg
- grafts remained patent (baboons (Papio anubis); 2 mm i.d. grafts, over 60 min): 2
- time to graft occlusion prolonged by (average) (baboons (Papio anubis); in 4 grafts, ASA 32 mg/kg orally): 18 min
- effect on bleeding time / hemostasis (baboons [2]; FIG. 6, compared with no treatment controls): prolonged the bleeding time
- standard template bleeding time (baboons [2]; vehicle-treated controls 3.4±0.2 min): 6.4 ± 0.7 min
- adverse bleeding events (baboons [3]): No re-bleeding phenomena, petechiae, hematomas or other adverse bleeding events
